Experiments:
female ICR mice = test: dural IL-6 facial hypersensitivity and hyperalgesic priming model (von Frey facial withdrawal threshold); format: in vivo; settings: for hyperalgesic priming: response to second dural stimulus SIF pH 7.0: 25 μg dural co-injection with 0.1 ng IL-6, pH 7.0 given after return to baseline; for acute facial mechanical hypersensitivity after dural IL-6: 25 μg dural co-injection with 0.1 ng IL-6, versus IL-6 alone
Experimental: Mice received a dural injection of interleukin-6 in the absence or presence of the protein synthesis inhibitor anisomycin or the translation initiation inhibitor 4EGI-1 and were tested for facial hypersensitivity. Upon returning to baseline, mice were given a second, non-noxious dural injection of pH 7.0 to test for priming. Additionally, eIF4ES209A mice lacking phosphorylation of mRNA cap-binding protein eIF4E received dural interleukin-6 or were subjected to repeated restraint stress and then tested for facial hypersensitivity. After returning to baseline, mice were given either dural pH 7.0 or a systemic sub-threshold dose of the nitric oxide donor sodium nitroprusside and tested for priming.
First female mice were administered either 0.1 ng of IL-6, 25 μg of anisomycin (a general protein synthesis inhibitor), or a co-injection of both onto the dura to induce mechanical facial allodynia that persisted for more than 24 h and resolved by 72 h (FIG. 2). Upon returning to baseline, a second stimulus, SIF (pH 7.0), was administered onto the dura to reveal the presence of hyperalgesic priming from the initial IL-6 stimulus. […] This hypersensitivity persisted for more than 5 h.
Similar to the experiments used to generate FIG. 2, 0.1 ng of IL-6, 25 μg of 4EGI-1, a compound that mimics the activity of 4E-BP1, or a co-injection of both was administered onto the dura of female mice (FIG. 3). The resulting mechanical allodynia induced by IL-6 persisted for more than 24 h and resolved after 72 h. Upon returning to baseline, mice were exposed to a dural injection of low pH. […] Thus, assembly of the eIF4F complex locally in the dura appears to be critical to the development of long-lasting mechanical hypersensitivity following repeated stress.
Human recombinant IL-6 protein (R&D Systems) stock solution (100 mg/mL) was prepared in sterile 0.1% BSA and diluted to 1 ng/mL in synthetic interstitial fluid (SIF) consisting of 135 mM NaCl, 5 mM KCl, 10 mM HEPES, 2 mM CaCl2, 10 mM glucose, 1 mM MgCl2 (pH 7.4, 310 mOsm). Anisomycin (Tocris) stock solution (135 mg/mL) and 4EGI-1 (Enzo) stock solution (20 mg/mL) were both prepared in sterile 0.1% BSA and diluted to 5 mg/mL in SIF. Sodium nitroprusside (SNP) (Sigma-Aldrich) was prepared in sterile phosphate buffered saline (PBS) at the time of use and was kept away from light. For dural injections, mice received […] injections of either IL-6, anisomycin, 4EGI-1, SIF, or a combination of IL-6 and anisomycin or IL-6 and 4EGI-1 for acute testing. For testing the ability of mice to prime to the initial stimulus in these dural injection experiments, […] of SIF pH 7.0 were administered onto the dura. […]

Jurkat cells = settings: cited from earlier work
A549 cells = settings: cited from earlier work
[1] = local administration; cited from earlier work
[2] = in vivo; cited from earlier work
Candida Pkc1 = target: T1, Candida Pkc1 (Candida albicans, UniProt P43057); settings: cited from earlier work
T1 sequence (P43057 1-1097): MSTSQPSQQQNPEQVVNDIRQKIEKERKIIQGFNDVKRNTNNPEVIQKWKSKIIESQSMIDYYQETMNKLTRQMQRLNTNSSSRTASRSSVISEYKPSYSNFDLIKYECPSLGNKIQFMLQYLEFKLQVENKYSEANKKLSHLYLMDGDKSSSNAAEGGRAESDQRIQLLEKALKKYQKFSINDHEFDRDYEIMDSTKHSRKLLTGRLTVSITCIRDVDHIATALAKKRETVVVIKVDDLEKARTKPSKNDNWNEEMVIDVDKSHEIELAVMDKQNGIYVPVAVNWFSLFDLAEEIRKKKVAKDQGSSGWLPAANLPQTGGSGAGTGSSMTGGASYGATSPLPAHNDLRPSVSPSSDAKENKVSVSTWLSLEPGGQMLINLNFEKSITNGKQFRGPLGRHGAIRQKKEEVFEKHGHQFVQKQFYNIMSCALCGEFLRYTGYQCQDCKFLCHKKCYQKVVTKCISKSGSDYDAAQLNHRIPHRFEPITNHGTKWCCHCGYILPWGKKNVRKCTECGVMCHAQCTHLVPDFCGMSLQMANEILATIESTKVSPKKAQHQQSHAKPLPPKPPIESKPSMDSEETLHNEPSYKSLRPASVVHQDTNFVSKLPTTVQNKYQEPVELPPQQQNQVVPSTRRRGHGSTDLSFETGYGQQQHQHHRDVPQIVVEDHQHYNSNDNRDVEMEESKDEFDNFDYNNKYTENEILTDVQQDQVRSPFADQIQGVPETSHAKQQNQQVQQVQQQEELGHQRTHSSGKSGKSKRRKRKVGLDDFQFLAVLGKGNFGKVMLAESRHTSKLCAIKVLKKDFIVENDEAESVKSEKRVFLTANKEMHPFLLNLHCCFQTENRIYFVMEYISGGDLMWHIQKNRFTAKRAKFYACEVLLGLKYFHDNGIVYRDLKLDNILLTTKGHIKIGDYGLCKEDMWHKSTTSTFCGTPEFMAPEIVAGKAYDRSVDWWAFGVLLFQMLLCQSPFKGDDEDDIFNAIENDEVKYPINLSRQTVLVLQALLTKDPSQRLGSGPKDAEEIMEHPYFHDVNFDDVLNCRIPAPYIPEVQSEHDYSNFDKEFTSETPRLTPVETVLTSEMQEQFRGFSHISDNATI

hyperglycemic mice = settings: cited from earlier work
mice = settings: Moy et al. (2017); cited from earlier work
hindpaw = settings: local co-injection with IL-6 into the hindpaw, previous study; cited from earlier work
[3] = tested on: eIF4E phosphorylation at serine 209; settings: in vitro, tumor cell lines, dose-dependent; read-out: IC50 for reduction of eIF4E phosphorylation at serine 209; cited from earlier work
DLBCL cell lines = settings: multiple DLBCL cell lines; cited from earlier work
[4] = tested on: TNFa, IL-6, IL-10 and CXCL10 production in TMD8, OCI-Ly3 and HBL1 DLBCL cell lines; settings: cited from earlier work
TNFa mRNA = settings: cited from earlier work
[5] = tested on: models which harbor activating MyD88 mutations; settings: in vivo, multiple models harboring activating MyD88 mutations; cited from earlier work

O=C(O)C(Cc1ccccc1[N+](=O)[O-])=NNc1nc(-c2ccc(Cl)c(Cl)c2)cs1 [4EGI-1]
hyperalgesic priming: response to second dural stimulus SIF pH 7.0 (female ICR mice): robustly blocked | acute facial mechanical hypersensitivity after dural IL-6 (female ICR mice): partially attenuated | activity against Jurkat cells (Jurkat cells): exhibits activity | activity against A549 cells (A549 cells): exhibits activity | mechanical hypersensitivity and injury-induced changes in nociceptor excitability [1]: reduces

CC(=O)C1=C(O)C=C2Oc3c(C(N)=O)c(O)cc(O)c3[C@]2(C)C1=O [Cercosporamide]
oral bioavailability [2]: orally bioavailable | IC50 (Candida Pkc1): 25 nM | plasma glucose (hyperglycemic mice): lowering of plasma glucose | cold hypersensitivity induced by peripheral nerve injury (mice): reduced

COc1ccc(C[C@H]2NC[C@H](O)[C@H]2OC(C)=O)cc1 [anisomycin]
hyperalgesic priming: response to second dural stimulus SIF pH 7.0 (female ICR mice): did not respond to the low pH | acute facial mechanical hypersensitivity after dural IL-6 (female ICR mice): only minor differences | mechanical hypersensitivity and injury-induced changes in nociceptor excitability [1]: reduces | acute mechanical hypersensitivity after IL-6 into the hindpaw (hindpaw): prevented

Cc1cc(Nc2cc(N)ncn2)c(=O)n2c1C(=O)NC21CCCCC1 [eFT508]
IC50 [3]: 2 to 16 nM | anti-proliferative activity (DLBCL cell lines): anti-proliferative activity | production of pro-inflammatory cytokines including TNFa, IL-6, IL-10 and CXCL10 [4]: dose-dependent decreases | decrease in TNFa mRNA half-life (TNFa mRNA): 2 fold | anti-tumor activity [5]: significant anti-tumor activity | oral bioavailability [2]: orally bioavailable

— US12329756B2, “Regulation of eIF4E activity for migraine therapy” (Board of Regents, The University of Texas System, priority 2020, dated 2025)
